Measured values: patent US6399654B1, “Biflavanoids and derivatives thereof as antiviral agents” (priority 1995, dated 2002)
In brackets after ≈: the same amount, converted by molar mass. Like-named read-outs stand apart in the source and are kept apart here.

Tests used:
[1] = test system: HSV-2; assay: HSV-2 CPE inhibition in HFF cells
[2] = test system: Parainfluenza Type 3 Virus; assay: organism not typed; assay type: cell-based; conditions: MA104, read-out: Neutral Red EC50
[3] = test system: HSV-1; assay: HSV-1 CPE inhibition in HFF cells
[4] = test system: Measles Virus; assay: Measles virus neutral red dye uptake in BSC-1 cells; assay type: cell-based; conditions: Measles morbillivirus, BSC-1
[5] = molecular target: T1, HIV-1 RT (Human immunodeficiency virus type 1 group M subtype B, UniProt P03366); assay: Anti-HIV-1 RT assay (recombinant enzyme); assay type: biochemical
T1 construct: made in house; host or cells: Escherichia coli

[6] = test system: Influenza B Panama/45/90; assay: microbe, parasite or virus in culture; assay type: cell-based; conditions: Influenza B virus, MDCK; Influenza B Panama/45/90; read-out: CPE Inhibition EC50
[7] = in vitro; conditions: dog, Neutral Red IC50 (cytotoxic)
[8] = test system: Madin Darby canine kidney (MDCK) cells; conditions: Influenza A (H3N2) test
[9] = in vitro; conditions: human
[10] = in vitro; conditions: African green monkey, Neutral Red IC50 (cytotoxic)
[11] = test system: Parainfluenza Type 3 Virus; assay: organism not typed; assay type: cell-based; conditions: MA104; Parainfluenza Type 3 Virus; read-out: CPI Inhibition EC50
[12] = Cytotoxicity by neutral red dye uptake, MA-104 cells; conditions: African green monkey, MA-104 cells (toxicity control wells), Neutral Red IC50 (cytotoxic), Respiratory Syncytial Virus test
[13] = test system: Hepatitis B Virus (HBV); assay: Inhibition of HBV replication in 2.2.15 cells, extracellular (virion) HBV DNA; conditions: Hepatitis B virus, 216 h;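 note: extracellular virion HBV DNA in culture medium measured by slot blot hybridization with a 32P-labeled HBV probe, quantified against HBV DNA standards, after 9 days of daily dosing, compared with day 0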
Method: Test compounds were added daily for a nine continuous day period; the culture medium was collected and stored for analysis of extracellular (virion) HBV DNA after 0, 3, 6, and 9 days of treatment. The treated cells were lysed 24 hours following day 9 of treatment for the analysis of intracellular HBV genomic forms. The overall levels of HBV DNA (both extracellular and intracellular DNA) and the relative rate of HBV replication (intracellular DNA) were analyzed quantitatively. The analysis was performed using blot hybridization techniques and [^32P]-labeled HBV-specific probes. The HBV DNA levels were measured by comparison to known amounts of HBV DNA standards applied to every nitrocellulose membrane (gel or slot blot). An AMBIS beta scanner, which measures the radioactive decay of the hybridized probes directly from the nitrocellulose membranes, was used for the quantitative analysis. Standard curves, generated by multiple analyses, were used to correlate CPM measurements made by the beta scanner with relative levels of target HBV DNA. The levels of HBV virion DNA released into the culture medium were analyzed by a slot blot hybridization procedure. HBV DNA levels were then compared to those at day 0 to determine the effect of the test compound. A known positive drug was evaluated in parallel with test compounds in each test.
Determination of therapeutic concentrations (EC50 and EC90) and toxicity concentrations (IC50) were determined as previously described (90). Stock solutions of text drugs were prepared in DMSO. Culture medium was changed daily and analyzed for extracellular HBV DNA after nine days of continuous drug exposure. Extracellular HBV DNA was extracted from the culture media and analyzed by a slot blot hydridization technique, using a ^32P-labeled Eco RI HBV DNA fragment, as previously described (91), and quantitated via comparison to HBV standards on a nitrocellulose filter, using an AMBIS beta scanner. Toxicity was determined by measuring inhibition of neutral red dye uptake. […] Effective concentration values for individual agents are the mean of six cultures per concentration point. Toxicity values are the mean of three cultures per concentration point.

[14] = test system: Measles Virus; assay: microbe, parasite or virus in culture; assay type: cell-based; conditions: Measles morbillivirus, BSC-1; Measles Virus; read-out: CPI Inhibition EC50
[15] = in vitro; conditions: human; remark: listed apart in the source
[16] = test system: Respiratory Syncytial Virus; assay: microbe, parasite or virus in culture; assay type: cell-based; conditions: human respiratory syncytial virus, MA104; read-out: CPE Inhibition EC50
[17] = test system: HCMV; assay: HCMV CPE inhibition in HFF cells
[18] = test system: Influenza A (H3N2) Beijing/32/92; assay: microbe, parasite or virus in culture; assay type: cell-based, influenza A virus; conditions: Influenza A virus, MDCK; Influenza A (H3N2) Beijing/32/92; read-out: Neutral Red EC50
[19] = test system: Influenza A (H3N2) Beijing/32/92; assay: microbe, parasite or virus in culture; assay type: cell-based, influenza A virus; conditions: Influenza A virus, MDCK; Influenza A (H3N2) Beijing/32/92; read-out: CPE Inhibition EC50
[20] = test system: Influenza A (H1N1) Texas/36/91; assay: microbe, parasite or virus in culture; assay type: cell-based, influenza A virus; conditions: Influenza A virus, MDCK; Influenza A (H1N1) Texas/36/91; read-out: Neutral Red EC50
[21] = test system: VZV; assay: VZV plaque reduction assay in HFF cells
[22] = test system: Adenovirus Type 5; assay: microbe, parasite or virus in culture; assay type: cell-based; conditions: Human mastadenovirus C, A549, read-out: CPE Inhibition EC50
[23] = Cytotoxicity by neutral red dye uptake, A549 cells; conditions: human, A549 cells (toxicity control wells)
[24] = test system: HIV-1 (strain LAV-1); assay: microbe, parasite or virus in culture; assay type: cell-based; conditions: Human immunodeficiency virus 1, PBMC, human PBM cells infected with HIV-1 (strain LAV); read-out: Ant-HIV-1 in PBM cells EC50
[25] = test system: Adenovirus Type 5; assay: Adenovirus type 5 neutral red dye uptake in A549 cells; assay type: cell-based; conditions: Human mastadenovirus C, A549; Adenovirus Type 5; read-out: Neutral Red EC50
[26] = test system: Respiratory Syncytial Virus; assay: microbe, parasite or virus in culture; assay type: cell-based; conditions: human respiratory syncytial virus, MA104; read-out: Neutral Red EC50
[27] = test system: Influenza A (H1N1) Texas/36/91; assay: microbe, parasite or virus in culture; assay type: cell-based, influenza A virus; conditions: Influenza A virus, MDCK; Influenza A (H1N1) Texas/36/91; read-out: CPE Inhibition EC50
[28] = in vitro; conditions: dog
[29] = in vitro; conditions: human; remark: listed apart in the source

Question: With `O=c1cc(-c2ccc(O)c(-c3c(O)cc(O)c4c(=O)cc(-c5ccc(O)cc5)oc34)c2)oc2cc(O)cc(O)c12` [Amentoflavone (1), amentoflavone] as the compound, how does the “HSV-2 SI (CC50/EC50)” value ([1]; HFF Cells) read?
Answer: >2.1

Question: And the EC50 ([1]; Human alphaherpesvirus 2, HFF, read-out: HSV-2 CPE Inhibition EC50)?
Answer: 48 µg/mL (≈ 89.1 µM)

Question: What about the EC50 [2] of the same compound?
Answer: ~32 µg/mL (≈ 59.4 µM)

Question: What about the “HSV-1 SI (CC50/EC50)” value ([3]; HFF Cells) of the same compound?
Answer: >5.6

Question: What about the EC50 ([3]; Human alphaherpesvirus 1, HFF, read-out: HSV-1 CPE Inhibition EC50) of the same compound?
Answer: 17.9 µg/mL (≈ 33.2 µM)

Question: And the EC50 [4]?
Answer: < 20 µg/mL

Question: And the IC50 ([5]; Anti-HIV-1 RT IC50, values in parentheses or in words)?
Answer: 119 µM

Question: What about the IC50 ([5]; HIV-1 RT IC50 (50% inhibition dose)) of the same compound?
Answer: 119 µM

Question: What about the inhibition at 200 µg/mL ([5]; read-out: Anti-HIV-1 RT % Inhibition at 200 μg/ml) of the same compound?
Answer: 97.3%

Question: What about the EC50 [6] of the same compound?
Answer: 0.56 µg/mL (≈ 1.04 µM)

Question: And the IC50 ([7]; Influenza A (H1N1) test)?
Answer: > 100 µg/mL

Question: What about the IC50 ([7]; Influenza A (H3N2) test) of the same compound?
Answer: > 100 µg/mL

Question: And the “CPE Inhibition IC50 (cytotoxic)” value [8]?
Answer: >100 µg/mL

Question: And the CC50 at 14 days ([9]; HCMV CPE Inhibition CC50)?
Answer: > 100 µg/mL

Question: What about the CC50 at 3 days ([9]; HSV-1 CPE Inhibition CC50) of the same compound?
Answer: > 100 µg/mL

Question: What about the CC50 at 3 days ([9]; HSV-2 CPE Inhibition CC50) of the same compound?
Answer: > 100 µg/mL

Question: And the CC50 at 10 days ([9]; VZV Plaque Reduction CC50)?
Answer: 9.3 µg/mL (≈ 17.3 µM)

Question: What about the IC50 [10] of the same compound?
Answer: ~56 µg/mL (≈ 104 µM)

Question: And the EC50 [11]?
Answer: > 100 µg/mL

Question: What about the IC50 [12] of the same compound?
Answer: ~35 µg/mL (≈ 65 µM)

Question: And the EC50 ([13]; read-out: EC50 (50% effective dose), HBV Virion, 2.2.15 cells, extracellular (virion) HBV DNA, 9 days treatment)?
Answer: > 100 µM

Question: And the EC90 ([13]; read-out: EC90 (90% effective dose), HBV Virion, 2.2.15 cells, extracellular (virion) HBV DNA, 9 days treatment)?
Answer: > 100 µM

Question: What about the EC50 [14] of the same compound?
Answer: < 40 µg/mL

Question: What about the IC50 [15] of the same compound?
Answer: 35 µM

Question: What about the EC50 [16] of the same compound?
Answer: ~10 µg/mL (≈ 18.6 µM)

Question: What about the “HCMV SI (CC50/EC50)” value ([17]; HFF Cells) of the same compound?
Answer: >1.9

Question: What about the EC50 ([17]; Human betaherpesvirus 5, HFF, read-out: HCMV CPE Inhibition EC50) of the same compound?
Answer: 50.8 µg/mL (≈ 94.3 µM)

Question: What about the EC50 [18] of the same compound?
Answer: 6.5 µg/mL (≈ 12.1 µM)

Question: And the EC50 [19]?
Answer: 4.3 µg/mL (≈ 7.99 µM)

Question: And the EC50 [20]?
Answer: 5.3 µg/mL (≈ 9.84 µM)

Question: What about the “VZV SI (CC50/EC50)” value ([21]; HFF Cells) of the same compound?
Answer: <2.3

Question: And the EC50 ([21]; Human alphaherpesvirus 3, HFF, read-out: VZV Plaque Reduction EC50)?
Answer: > 4 µg/mL

Question: And the EC50 [22]?
Answer: > 100 µg/mL

Question: What about the IC50 [23] of the same compound?
Answer: 74 µg/mL (≈ 137 µM)

Question: What about the EC50 [24] of the same compound?
Answer: > 10.9 µM

Question: What about the EC50 [25] of the same compound?
Answer: > 100 µg/mL

Question: And the EC50 [26]?
Answer: ~21 µg/mL (≈ 39 µM)

Question: And the EC50 [27]?
Answer: 3.1 µg/mL (≈ 5.76 µM)

Question: What about the IC50 ([28]; CPE Inhibition IC50 (50% cell inhibitory (cytotoxic) concentration), Influenza A (H1N1) test) of the same compound?
Answer: 22 µg/mL (≈ 40.9 µM)

Question: And the IC50 ([28]; CPE Inhibition IC50 (cytotoxic), Influenza A (H3N2) test)?
Answer: > 100 µg/mL

Question: What about the IC50 ([28]; CPE Inhibition IC50 (cytotoxic), Influenza B test) of the same compound?
Answer: 100 µg/mL (≈ 186 µM)

Question: And the IC50 [29]?
Answer: 18 µg/mL (≈ 33.4 µM)
